# Experimental data from US7582618B2 (priority 2002, dated 2009).
# What was measured:
# [1] = tested on: BVDV NADL cp in MDBK cells; assay: Plaque reduction assay; type: cell-based; conditions: Bovine viral diarrhea virus isolates and strains
# Procedure: For each compound the effective concentration was determined in duplicate 24-well plates by plaque reduction assays. Cell monolayers were infected with 100 PFU/well of virus. Then, serial dilutions of test compounds in MEM supplemented with 2% inactivated serum and 0.75% of methyl cellulose were added to the monolayers. Cultures were further incubated at 37° C. for 3 days, then fixed with 50% ethanol and 0.8% Crystal Violet, washed and air-dried. Then plaques were counted to determine the concentration to obtain 90% virus suppression.
# [2] = tested on: BVDV I-NADL cp in MDBK cells; assay: Yield reduction assay; type: cell-based; conditions: Bovine viral diarrhea virus isolates and strains
# Procedure: For each compound the concentration to obtain a 6-log reduction in viral load was determined in duplicate 24-well plates by yield reduction assays. The assay was performed as described by Baginski, S. G.; Pevear, D. C.; Seipel, M.; Sun, S. C. C.; Benetatos, C. A.; Chunduru, S. K.; Rice, C. M. and M. S. Collett “Mechanism of action of a pestivirus antiviral compound” PNAS USA 2000, 97(14), 7981-7986, with minor modifications. Briefly, MDBK cells were seeded onto 24-well plates (2×10^5 cells per well) 24 hours before infection with BVDV (NADL strain) at a multiplicity of infection (MOI) of 0.1 PFU per cell. Serial dilutions of test compounds were added to cells in a final concentration of 0.5% DMSO in growth medium. Each dilution was tested in triplicate. After three days, cell cultures (cell monolayers and supernatants) were lysed by three freeze-thaw cycles, and virus yield was quantified by plaque assay. Briefly, MDBK cells were seeded onto 6-well plates (5×10^5 cells per well) 24 h before use. Cells were inoculated with 0.2 mL of test lysates for 1 hour, washed and overlaid with 0.5% agarose in growth medium. After 3 days, cell monolayers were fixed with 3.5% formaldehyde and stained with 1% crystal violet (w/v in 50% ethanol) to visualize plaques. The plaques were counted to determine the concentration to obtain a 6-log reduction in viral load.
# DENV-2 in BHK cells = assay: Cell protection assay; type: cell-based; conditions: Dengue virus, DENV2, DENV-2, BHK
# HepG2 cells = assay: Mitochondrial DNA content (mtDNA/nuclear DNA); type: cell-based, human; conditions: 10 μM
# Procedure: To assess the potential of mCyd to produce mitochondrial toxicity, several in vitro studies were conducted using the human hepatoma cell lines HepG2 or Huh7.
# • a. HepG2 or huh7 cells were treated with compounds for 4 days, data represent at least three independent experiments • b. HepG2 cells were treated with compounds for 6 and 14 days, data represents at least three independent experiments • c. HepG2 cells were treated with compounds for 14 days • d. 17% cell (11 of 64) contained 1 or 2 enlarged mitochondria out of 25 in two independent experiments nd, not determined
# rig S15 mRNA = assay: Cellular housekeeping mRNA control by RT-PCR in MDBK cells; type: cell-based, bovine; conditions: up to 125 μM
# [3] = tested on: BVDV (strain I-N-dIns), noncytopathic; type: cell-based, bovine viral diarrhea virus
# in vitro = conditions: rhesus monkey
# [4] = tested on: BVDV NADL cp in MDBK cells; assay: Yield reduction assay; type: cell-based, bovine viral diarrhea virus
# Yellow Fever virus = assay: microbe, parasite or virus in culture; type: cell-based; conditions: read-out: composite EC50 range, Yellow Fever virus
# West Nile virus = assay: microbe, parasite or virus in culture; type: cell-based; conditions: read-out: composite EC50 range, West Nile virus
# WNV (Vero) = assay: microbe, parasite or virus in culture; type: cell-based; conditions: West Nile virus
# YFV (Vero) = assay: microbe, parasite or virus in culture; type: cell-based; conditions: Yellow fever virus
# [5] = Cellular DNA or RNA synthesis ([3H]-thymidine / [3H]-uridine incorporation); conditions: human, HepG2 cells
# Cytotoxicity (Table 10) [6] = conditions: dog, MDCK cells
# [7] = Human bone marrow clonogenic assay
# Cytotoxicity (Table 10) [8] = conditions: human, HeLa-Ohio cells
# CVB-4 = assay: microbe, parasite or virus in culture; type: cell-based, Coxsackievirus B-4; conditions: Coxsackievirus, read-out: EC50 CVB-4
# [9] = Cytotoxicity (cell proliferation) assay; conditions: human
# Huh7 cells = assay: Mitochondria toxicity assay, lactic acid production; conditions: 10 μM, 4 days
# [10] = read-out: Antiviral Efficacy EC90
structure (smiles),measurement,setting,value
"CC1(O)C(O)C(CO)OC1n1ccc(N)nc1=O (stereo not shown) [mCyd, 4-Amino-1-(3,4-dihydroxy-5-hydroxymethyl-3-methyl-tetrahydro-furan-2-yl)-1H-pyrimidine-2-one]",EC50,[1],2.57 ± 0.35 µM
same,EC90,[1]; [10],4.63 ± 0.72 µM
same,EC50,[2],0.68 µM
same,EC90,[2]; [10],1.73 µM
same,EC50,DENV-2 in BHK cells,95 µM
same,"mtDNA/nuclear DNA (% of Control), 6 day Treatment",HepG2 cells,117.3 ± 17.5 % of Control
same,"mtDNA/nuclear DNA (% of Control), 14 day Treatment",HepG2 cells,99.7 ± 23.9 % of Control
same,effect on level of rig S15 cellular mRNA control,rig S15 mRNA,No effect
same,virus detection under prolonged treatment,"[3]; 8 μM, after two passages, re-emerged by passage 6",no longer detectable
same,virus production,"[3]; 16 μM, from more than 6 logs of virus per ml, within two cell passages",undetectable levels
same,CC50,in vitro,> 200 µM
same,EC50,"[4]; Bovine viral diarrhea virus isolates and strains, yield reduction, BVDV NADL cp, MDBK",2.77 ± 1.16 µM
same,EC90,"[4]; Bovine viral diarrhea virus isolates and strains, yield reduction, BVDV NADL cp, MDBK, read-out: Antiviral Efficacy EC90",4.8 ± 1.55 µM
same,suppression of de novo BVDV production,"[4]; yield reduction assay, circa 20 μM",up to 6 log10
same,Antiviral Efficacy EC4 log,"[4]; yield reduction, BVDV NADL cp, MDBK",13.9 ± 3.07 μM
same,EC50,Yellow Fever virus,9 to 80 µM
same,EC50,West Nile virus,46 to 97 µM
same,EC50,WNV (Vero),46 µM
same,EC50,YFV (Vero),9 to 30 µM
same,CC50,"[5]; probe [3H]-thymidine, CC50 DNA ([3H]Thymidine), 50% reduction of thymidine incorporation into cellular DNA",112 µM
same,CC50,"[5]; probe [3H]-uridine, CC50 RNA ([3H]Uridine), 50% reduction of uridine incorporation into cellular RNA",186 µM
same,CC50,Cytotoxicity (Table 10) [6]; Influenza A/H1N1 row,> 200 µM
same,CC50,Cytotoxicity (Table 10) [6]; Influenza A/H3N2 row,45 to 65 µM
same,CC50,Cytotoxicity (Table 10) [6]; Influenza B row,55 to 140 µM
same,CC50,[7],13.9 ± 3.2 µM
same,CC50,Cytotoxicity (Table 10) [8],≥ 20 µg/mL
same,EC50,CVB-4,13 µM
same,CC50,[9],> 200 µM
same,CC50,"[9]; HepG2 hepatoma cells on collagen-coated plates, CC50, HepG2 grown on collagen coated plates for 4 or 10 d",≥ 200 µM
same,CC50 at 4 days,"[9]; HepG2 hepatoma cells, CC50, HepG2, rapid cell division",161 µM
same,"L-Lactate (% of Control), Huh7 Cells",Huh7 cells,98.0 ± 12.3 % of Control
